Assay results reported in the NIST ThermoML archive (doi:10.1021/je060271a).
Where “and” joins values, the source holds several entries; their conditions need not be identical. Identical values can stand only once. Numbers after ± are expanded uncertainties.

Settings: 323.16 K, Liquid, Vibrating tube method

CCCCCC(=O)OCC(COC(=O)CCCCC)(COC(=O)CCCCC)COC(=O)CCCCC [pentaerythritol tetrahexanoate]
Settings	mass density
1057.9 kPa	973.4 ± 1.2 kg/m3
1108.4 kPa	973.5 ± 1.2 kg/m3
1111.9 kPa	973.6 ± 1.2 kg/m3
1116.1 kPa	973.5 ± 1.2 kg/m3
1120.2 kPa	973.4 ± 1.2 kg/m3
1124.1 kPa	973.4 ± 1.2 kg/m3
1169 kPa	973.6 ± 1.2 kg/m3
1173 kPa	973.5 ± 1.2 kg/m3
1178.4 kPa	973.6 ± 1.2 kg/m3
1182.7 kPa	973.5 ± 1.2 kg/m3
1188.3 kPa	973.4 ± 1.2 kg/m3
1192.5 kPa	973.4 ± 1.2 kg/m3
1197 kPa	973.5 ± 1.2 kg/m3
1201.3 kPa	973.4 ± 1.2 kg/m3
1206.2 kPa	973.5 ± 1.2 kg/m3
1211.4 kPa	973.6 ± 1.2 kg/m3
1215.4 kPa	973.6 ± 1.2 kg/m3
1219.4 kPa	973.6 ± 1.2 kg/m3
1224.6 kPa	973.5 ± 1.2 kg/m3
1228.9 kPa	973.6 ± 1.2 kg/m3
1234 kPa	973.5 ± 1.2 kg/m3
1239.2 kPa	973.4 ± 1.2 kg/m3
1336.1 kPa	973.5 ± 1.2 kg/m3
1340.9 kPa	973.6 ± 1.2 kg/m3
1346.8 kPa	973.6 ± 1.2 kg/m3
1352 kPa	973.7 ± 1.2 kg/m3
1357.4 kPa	973.6 ± 1.2 kg/m3
1362.4 kPa	973.6 ± 1.2 kg/m3
1368 kPa	973.6 ± 1.2 kg/m3
1372.9 kPa	973.7 ± 1.2 kg/m3
1383.8 kPa	973.7 ± 1.2 kg/m3
1389.5 kPa	973.7 ± 1.2 kg/m3
1395.4 kPa	973.6 ± 1.2 kg/m3
1400.6 kPa	973.7 ± 1.2 kg/m3
1405.7 kPa	973.7 ± 1.2 kg/m3
1542.7 kPa	973.7 ± 1.2 kg/m3
1548.7 kPa	973.7 ± 1.2 kg/m3
1555.9 kPa	973.7 ± 1.2 kg/m3
1561.4 kPa	973.8 ± 1.2 kg/m3
1568.9 kPa	973.8 ± 1.2 kg/m3
1574.8 kPa	973.8 ± 1.2 kg/m3
1580.3 kPa	973.9 ± 1.2 kg/m3
1587.3 kPa	973.9 ± 1.2 kg/m3
1592.8 kPa	974 ± 1.2 kg/m3
1784.1 kPa	973.9 ± 1.2 kg/m3
1792.4 kPa	974 ± 1.2 kg/m3
1799.4 kPa	973.9 ± 1.2 kg/m3
1808.1 kPa	974 ± 1.2 kg/m3
1815.2 kPa	974 ± 1.2 kg/m3
1823.9 kPa	974 ± 1.2 kg/m3
1831.3 kPa	974 ± 1.2 kg/m3
1839.8 kPa	974 ± 1.2 kg/m3
1848.7 kPa	974 ± 1.2 kg/m3
1856.1 kPa	973.9 ± 1.2 kg/m3
1864.5 kPa	974 ± 1.2 kg/m3
1872.1 kPa	974 ± 1.2 kg/m3
1879.9 kPa	973.9 ± 1.2 kg/m3
1889.3 kPa	974 ± 1.2 kg/m3
1998.3 kPa	974 ± 1.2 kg/m3
2007.3 kPa	974 ± 1.2 kg/m3
2015.3 kPa	974.1 ± 1.2 kg/m3
2024.8 kPa	974.2 ± 1.2 kg/m3
2032.8 kPa	974.2 ± 1.2 kg/m3
2042.2 kPa	974.1 ± 1.2 kg/m3
2051.9 kPa	974.2 ± 1.2 kg/m3
2078.2 kPa	974.2 ± 1.2 kg/m3
2086.8 kPa	974.2 ± 1.2 kg/m3
2097.3 kPa	974.1 ± 1.2 kg/m3
2105.3 kPa	974.2 ± 1.2 kg/m3
2275.9 kPa	974.3 ± 1.2 kg/m3
2285.6 kPa	974.2 ± 1.2 kg/m3
2297.5 kPa	974.3 ± 1.2 kg/m3
2309.2 kPa	974.3 ± 1.2 kg/m3
2319 kPa	974.3 ± 1.2 kg/m3
2329.5 kPa	974.3 ± 1.2 kg/m3
2339.5 kPa	974.4 ± 1.2 kg/m3
2350.8 kPa	974.3 ± 1.2 kg/m3
2360.3 kPa	974.3 ± 1.2 kg/m3
2372.6 kPa	974.1 ± 1.2 kg/m3
2382.7 kPa	974.2 ± 1.2 kg/m3
2394.7 kPa	974.5 ± 1.2 kg/m3
2404.4 kPa	974.2 ± 1.2 kg/m3
2416.5 kPa	974.4 ± 1.2 kg/m3
2428.5 kPa	974.4 ± 1.2 kg/m3
2438.7 kPa	974.4 ± 1.2 kg/m3
2448.6 kPa	974.5 ± 1.2 kg/m3
2460.9 kPa	974.4 ± 1.2 kg/m3
2471.7 kPa	974.4 ± 1.2 kg/m3
2484.5 kPa	974.5 ± 1.2 kg/m3
3633.2 kPa	975.3 ± 1.2 kg/m3
3649.5 kPa	975.3 ± 1.2 kg/m3
3663.4 kPa	975.2 ± 1.2 kg/m3
3679.8 kPa	975.3 ± 1.2 kg/m3
3696.6 kPa	975.2 ± 1.2 kg/m3
3710.8 kPa	975.3 ± 1.2 kg/m3
3725 kPa	975.2 ± 1.2 kg/m3
3741.8 kPa	975.2 ± 1.2 kg/m3
3756 kPa	975.3 ± 1.2 kg/m3
3773.4 kPa	975.3 ± 1.2 kg/m3
3790.9 kPa	975.4 ± 1.2 kg/m3
9966.7 kPa	979.5 ± 1.2 kg/m3
9977.9 kPa	979.5 ± 1.2 kg/m3
10002 kPa	979.7 ± 1.2 kg/m3
10012 kPa	979.7 ± 1.2 kg/m3
10025 kPa	979.6 ± 1.2 kg/m3
10037 kPa	979.6 ± 1.2 kg/m3
10040 kPa	979.6 ± 1.2 kg/m3
10048 kPa	979.7 ± 1.2 kg/m3
10060 kPa	979.7 ± 1.2 kg/m3
10071 kPa	979.8 ± 1.2 kg/m3
10084 kPa	979.7 ± 1.2 kg/m3
10096 kPa	979.7 ± 1.2 kg/m3
11088 kPa	980.3 ± 1.2 kg/m3
11101 kPa	980.4 ± 1.2 kg/m3
11112 kPa	980.3 ± 1.2 kg/m3
11122 kPa	980.3 ± 1.2 kg/m3
11136 kPa	980.4 ± 1.2 kg/m3
11150 kPa	980.5 ± 1.2 kg/m3
11155 kPa	980.3 ± 1.2 kg/m3
11157 kPa	980.4 ± 1.2 kg/m3
11160 kPa	980.4 ± 1.2 kg/m3
11163 kPa	980.4 ± 1.2 kg/m3
11168 kPa	980.4 ± 1.2 kg/m3
11174 kPa	980.3 ± 1.2 kg/m3
11186 kPa	980.4 ± 1.2 kg/m3
11198 kPa	980.4 ± 1.2 kg/m3
11199 kPa	980.3 ± 1.2 kg/m3
11200 kPa	980.4 ± 1.2 kg/m3
12660 kPa	981.3 ± 1.2 kg/m3
12684 kPa	981.3 ± 1.2 kg/m3
12713 kPa	981.5 ± 1.2 kg/m3
12737 kPa	981.5 ± 1.2 kg/m3
12767 kPa	981.4 ± 1.2 kg/m3
12791 kPa	981.5 ± 1.2 kg/m3
12819 kPa	981.5 ± 1.2 kg/m3
12848 kPa	981.4 ± 1.2 kg/m3
12871 kPa	981.5 ± 1.2 kg/m3
12899 kPa	981.4 ± 1.2 kg/m3
15446 kPa	983.2 ± 1.2 kg/m3
15470 kPa	983.2 ± 1.2 kg/m3
15500 kPa	983.1 ± 1.2 kg/m3
16331 kPa	983.8 ± 1.2 kg/m3 and 983.7 ± 1.2 kg/m3
16333 kPa	983.7 ± 1.2 kg/m3
16334 kPa	983.8 ± 1.2 kg/m3 and 983.7 ± 1.2 kg/m3
16336 kPa	983.8 ± 1.2 kg/m3
